Experimental data published in patent US8207189B2, “Compound having affinity for amyloid” (Nihon Medi-Physics Co., Ltd., priority 2007, dated 2012).

Columns and labels:
[1] = transferability into brain and clearance after intravenous injection; assay type: in vivo, rat; conditions: for Radioactive distribution per unit weight in brain, After 2 min. / Radioactive distribution per unit weight in brain, After 5 min. / Radioactive distribution per unit weight in brain, After 30 min. / Radioactive distribution per unit weight in brain, After 60 min.: male Wistar rats, intravenous injection; for radioactive accumulation in brain two minutes after the injection (in words) / clearance from brain in 60 minutes (in words): rats, intravenous; for Radioactive distribution per unit weight in brain, After 2 min. / radioactive accumulation in brain two minutes after the injection (in words): 2 min
Experimental: Using Compound 1 (Example 10) and Compound 2 (Example 11), a time course change of radioactive accumulation in brain of male Wistar rats (7-week old) was measured.
A diethyl ether solution of Compound 1 (Example 10) prepared in Example 3, a diethyl ether solution of Compound 2 (Example 11) prepared in Example 6 and a diethyl ether solution of [^123I]-IMPY (Comparative Example 5) prepared in Reference Example 1 were each diluted with 10 mg/mL ascorbic acid-containing physiological saline solution to adjust to a radioactive concentration of 8-12 MBq/mL. 0.05 mL each of the prepared sample solutions was injected under thiopental anesthesia into the tail vein of the rats. The rats were sacrificed by bleeding from abdominal artery, and brains were removed and subjected to measurement of mass of brains and further subjected to measurement of radioactivity (hereinafter referred to as A in this Example) with a single channel analyzer (detector type: SP-20 manufactured by OHYO KOKEN KOGYO Co., Ltd.) 2, 5, 30 and 60 minutes after the injection. Further, the radioactivity level of the rest of the whole body was measured in the same manner as above (hereinafter referred to as B in this Example). Using these measurement results, radioactive distribution per unit weight of brain (% ID/g) at the respective time points were calculated in accordance with the following formula (3).
Three animals were used for the experiment at the respective time points.
Using Compound 4 and Compound 6, a time course change of radioactive accumulation in brain of male Wistar rats (7-week old) was measured.
Compound 4 (Example 22), Compound 6 (Example 23) and a solution of [^123I]-IMPY (Comparative Example 8) prepared above in Reference Example 1 were each diluted with a 10 mg/mL ascorbic acid-containing physiological saline solution to prepare solutions (20-31 MBq/mL in radioactive concentration). 0.05 mL each of the prepared sample solutions was injected under thiopental anesthesia into the tail vein of the respective Wistar rat (7-week old). The rats were sacrificed by bleeding from abdominal artery, and brains were removed and subjected to measurement of mass of brains and further subjected to measurement of radioactivity (hereinafter referred to as A in this Example) with a single channel analyzer (detector type: SP-20 manufactured by OHYO KOKEN KOGYO Co., Ltd.) 2, 5, 30 and 60 minutes after the injection. Further, the radioactivity level of the rest of the whole body was measured in the same manner as above (hereinafter referred to as B in this Example). Using these measurement results, radioactive distribution per unit weight of brain (% ID/g) at the respective time points were calculated in accordance with the following formula (5).

[2] = partition coefficient based on the octanol extraction method; assay type: physicochemical; conditions: octanol / 10 mmol/L phosphate buffer pH 7.4
Experimental: Partition coefficients based on the octanol extraction method (hereinafter referred to as log Poctanol) were measured, which are generally known as an indicator of permeability of compounds through the blood-brain barrier (hereinafter referred to as BBB).
A diethyl ether solution of Compound 1 prepared in Example 3 (Example 8), a diethyl ether solution of Compound 2 prepared in Example 6 (Example 9), and a diethyl ether solution of [^123I]-IMPY prepared in Reference Example 1 (Comparative Example 4) were each diluted with 10 mg/mL ascorbic acid-containing physiological saline solution, and adjusted to a radioactive concentration of 20-30 MBq/mL. To 2 mL of octanol, 10 μL each of the prepared sample solutions was added, 2 mL of 10 mmol/L phosphate buffer (pH 7.4) was added, followed by stirring for 30 seconds. After the mixture was centrifuged with a low-speed centrifuge (2000 rpm×60 min.), the octanol layer and the water layer were sampled each in an amount of 1 mL, and subjected to measurement of radioactivity count with an autowell gamma system (Type: ARC-301B, manufactured by Aloka). Using the obtained radioactivity count, log Poctanol was calculated in accordance with the equation (2).
A diethyl ether solution (Example 20) of Compound 4 prepared in Example 16, a diethyl ether solution (Example 21) of Compound 6 prepared in Example 19, and a diethyl ether solution (Comparative Example 7) of [^123I]-IMPY were each diluted with a 10 mg/mL ascorbic acid-containing physiological saline solution to adjust to a radioactive concentration of 20-30 MBq/mL. To 2 mL of octanol, 10 μL each of the prepared sample solution was added, and 2 mL of 10 mmol/L phosphate buffer (pH 7.4) was further added, followed by stirring for 30 seconds. After the mixture was centrifuged with a low-speed centrifuge (2000 rpm×60 min.), the octanol layer and the water layer were sampled each in an amount of 1 mL, and subjected to measurement of radioactivity count with an autowell gamma system (Type: ARC-301B, manufactured by Aloka). Using the obtained radioactivity count, log Poctanol was calculated in accordance with the equation (4).

[3] = biological target: T1, amyloid (aggregated Aβ1-42) injected into amygdaloid nucleus (Homo sapiens, UniProt P05067); test: confirmation of imaging of amyloid in brain (autoradiogram, Aβ1-42 injected rats); assay type: in vivo, rat; conditions: brain slice 60 minutes after intravenous injection, Aβ1-42
T1 construct: Aβ1-42 (manufactured by Wako) was dissolved in phosphate buffer (pH 7.4); purchased Wako
T1 sequence (P05067 672-713): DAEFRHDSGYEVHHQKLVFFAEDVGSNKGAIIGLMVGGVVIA
Experimental: (§1) (1) Aβ1-42 (manufactured by Wako) was dissolved in phosphate buffer (pH 7.4) and shaken at 37° C. for 72 hours, to obtain a 1 mg/mL suspension of aggregated Aβ (hereinafter referred to as amyloid suspension in the Examples).
(§2) (2) 2.5 μL (corresponding to […]) of the amyloid suspension was injected into an amygdaloid nucleus on one side of a male Wistar rat (7-week old). As a control, 2.5 μL of a phosphate buffered physiological saline solution (pH 7.4) was injected into an amygdaloid nucleus on the other side of the rat. The rats were examined 1 day after the injection of the amyloid suspension and the phosphate buffered physiological saline solution (pH 7.4).
(§3) (3) Compound 1 was dissolved in a 10 mg/mL ascorbic acid-containing physiological saline solution to obtain a sample solution (22 MBq/mL in radioactivity concentration in the sample solution). This solution was injected under thiopental anesthesia into the rat through the tail vein (dosage: 0.5 mL, dosed radioactivity: 11-13 MBq equivalent).
(§4) (4) Brain was removed 60 minutes after the injection to prepare a brain slice of 10 μm in thickness with a microtome (type: CM3050S, manufactured by LEICA). The brain slice was exposed to an imaging plate for 20 hours, and then image analysis was carried out by use of a Bio-imaging Analyzer (type: BAS-2500; manufactured by FUJIFILM Corporation).
(§5) Thus, it was confirmed that amyloid was deposited on the slice (FIG. 6b).
(§6) The same procedures as in Example 12 were performed except using a solution of Compound 2 in a 10 mg/mL ascorbic acid as a sample solution (the radioactive concentration of the sample solution was 25 MBq/mL).
(§7) (1) Aβ1-42 (manufactured by Wako) was dissolved in phosphate buffer (pH 7.4) and shaken at 37° C. for 72 hours, to obtain 1 mg/mL of a suspension of aggregated Aβ (hereinafter referred to as amyloid suspension in the Examples).
(§8) (3) A sample solution (30 MBq/mL in radioactivity concentration, Example 24) in which Compound 4 was dissolved in a 10 mg/mL ascorbic acid-containing physiological saline solution and a sample solution (30 MBq/mL in radioactivity concentration, Example 25) in which Compound 6 was dissolved in a 10 mg/mL ascorbic acid-containing physiological saline solution were prepared. This solution was injected under thiopental anesthesia into the rat through the tail vein (dosage: 0.5 mL, dosed radioactivity: 11-15 MBq equivalent).
(§9) Thus, it was confirmed that amyloid was deposited on the slice (FIG. 12 and FIG. 13).

[4] = tested on: amyloid (aggregated Aβ1-42) injected into amygdaloid nucleus; test: as above; assay type: in vivo, rat; conditions: brain slice 60 minutes after intravenous injection
Experimental: as §1, §2, §3, §4, §5, §6, §7, §8, §9

[5] = WO03/106439; cited from earlier work
[6] = Table 4 (Examples 8-9, Comparative Example 4)
[7] = Table 6 (Examples 20-21, Comparative Example 7)

Compound | Radioactive distribution per unit weight in brain, After 2 min. ([1]; Table 5) [% ID/g] | Radioactive distribution per unit weight in brain, After 5 min. ([1]; Table 5) [% ID/g] | Radioactive distribution per unit weight in brain, After 30 min. ([1]; Table 5) [% ID/g] | Radioactive distribution per unit weight in brain, After 60 min. ([1]; Table 5) [% ID/g] | radioactive accumulation in brain two minutes after the injection (in words) [1] | clearance from brain in 60 minutes (in words) [1] | logPoctanol value [2, 6] | accumulation of radioactivity in amygdaloid nucleus on the amyloid-injected side [3] | accumulation of radioactivity at sites other than the amyloid injected sites [4] | accumulation of radioactivity in amygdaloid nucleus on the physiological saline-injected side [4] | Radioactive distribution per unit weight in brain, After 2 min. ([1]; Table 7) [% ID/g] | Radioactive distribution per unit weight in brain, After 5 min. ([1]; Table 7) [% ID/g] | Radioactive distribution per unit weight in brain, After 30 min. ([1]; Table 7) [% ID/g] | Radioactive distribution per unit weight in brain, After 60 min. ([1]; Table 7) [% ID/g] | logPoctanol value [2, 7] | reverse mutation test result [5]
2-(4′-ethoxyphenyl)-6-[^123I]iodoimidazo[1,2-a]pyridine [Compound 2] | 0.89 | 0.66 | 0.13 | 0.04 | significant radioactive accumulation | rapidly clear away | 2.1 | marked accumulation of radioactivity | some radioactive accumulation | no significant accumulation of radioactivity | – | – | – | – | – | –
2-[3′-(2″-hydroxyethoxy)phenyl]-6-[^123I]iodoimidazo[1,2-a]pyridine [Compound 4] | – | – | – | – | significant accumulation | rapidly clear away | – | marked accumulation of radioactivity | little accumulation of radioactivity | no significant accumulation of radioactivity | 0.56 | 0.28 | 0.04 | 0.01 | 2.5 | –
2-[4′-(2″-hydroxyethoxy)phenyl]-6-[^123I]iodoimidazo[1,2-a]pyridine [Compound 1] | 0.90 | 0.52 | 0.06 | 0.01 | significant radioactive accumulation | rapidly clear away | 1.8 | marked accumulation of radioactivity | little radioactive accumulation | no significant accumulation of radioactivity | – | – | – | – | – | –
2-[4′-(3″-hydroxypropoxy)phenyl]-6-[^123I]iodoimidazo[1,2-a]pyridine [Compound 6] | – | – | – | – | significant accumulation | rapidly clear away | – | marked accumulation of radioactivity | little accumulation of radioactivity | no significant accumulation of radioactivity | 0.81 | 0.56 | 0.07 | 0.02 | 2.1 | –
CC(=C(C#N)C#N)c1ccc2cc(N(C)CCF)ccc2c1 [FDDNP, 2-(1-{6-[(2-fluoroethyl)(methyl)amino]-2-naphthyl}ethylidene)malononitrile] | – | – | – | – | – | – | – | – | – | – | – | – | – | – | – | positive
CN(C)c1ccc(-c2cn3cc(I)ccc3n2)cc1 [IMPY, 6-iodo-2-[4′-(N,N-dimethylamino)phenyl]imidazo[1,2-a]pyridine] | – | – | – | – | – | – | – | – | – | – | – | – | – | – | – | positive
